# Data as given in patent US8034810B2, “Arylsulfonamido-substituted hydroxamic acid derivatives” (Novartis AG, priority 1999, dated 2011).
# Counter-ions that a name gives are not always drawn.
# Test system: EGFP transfected HT1080 cells
# Assay: Metastasis model with EGFP transfected HT1080 cells, lung fluorescence in nude mice
# Format: in vivo
# Settings: tumor cells i.v., p.o. 60 mg/kg twice a day, lungs on day 17
# Protocol: EGFP transfected HT1080: Nude mice were injected in the tail vein a suspension of tumor cells [2×10^6 cells/0.1 ml of PBS (phosphate buffered saline)]. Animals were dosed with compounds p.o. at −1 hr and +5 hrs relative to the time of the cell injection at the first day (day 0). After that the animals were dosed twice a day, firstly at 9-10:30 a.m. and secondly at 5:30-7:00 p.m. Compounds were administered as a suspension in 1% carboxymethyl cellulose (Wako, Japan) at a dose of 60 mg/kg twice a day. The vehicle alone was administered to the control group. On day 17, the lungs were removed from mice after sacrificing the animals. The removed lung tissues were divided into pieces of approximately 2-3 mm in diameter and then ca. 100 mg of tissues were suspended in 0.2 ml PBS in the microcentrifuge tubes followed by gentle homogenization and centrifugation. […] The fluorescence intensity was determined by using fluorescence plate reader (Cytoflour II) at the excitation and emission wavelength of 485 and 530 nm, respectively. The obtained fluorescence was normalized per lung using the wet lung weight. In this test a decrease in the fluorescence of 74% compared to the vehicle alone was determined for the compound of Example 68.
row,Compound,decrease in the fluorescence compared to the vehicle alone [%]
1,"COc1ccc(CN(CC(=O)NO)S(=O)(=O)c2ccc(OCCCCl)cc2)cc1 [Example 68, 2-{[4-(3-chloro-propoxy)-benzenesulfonyl]-(4-methoxy-benzyl)amino}-N-hydroxy-acetamide]",74

# Target: T1, MMP1 (collagenase 1) (Homo sapiens, UniProt P03956)
# T1 construct: made in house; host or cells: mouse C127 cells, vector pBPV-MMT, secreted into culture medium
# T1 sequence (P03956 100-469): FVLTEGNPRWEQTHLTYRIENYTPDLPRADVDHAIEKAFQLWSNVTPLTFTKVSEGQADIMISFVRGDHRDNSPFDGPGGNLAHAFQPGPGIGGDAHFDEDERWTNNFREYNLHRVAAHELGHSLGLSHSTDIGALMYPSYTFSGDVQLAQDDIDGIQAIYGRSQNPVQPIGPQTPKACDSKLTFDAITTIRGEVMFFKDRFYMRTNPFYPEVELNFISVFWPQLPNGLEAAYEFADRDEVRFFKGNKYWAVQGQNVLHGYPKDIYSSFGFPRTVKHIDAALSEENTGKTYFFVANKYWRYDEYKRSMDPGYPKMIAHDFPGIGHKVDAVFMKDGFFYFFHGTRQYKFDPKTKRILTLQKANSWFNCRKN
# Assay: In vitro inhibition of MMP1 (collagenase 1), fluorogenic peptide substrate
# Format: biochemical
# Settings: APMA-activated recombinant human collagenase; substrate 10 μM; 37° C.
# Protocol: The inhibitory activities of compounds of formula I on MT1-MMP, MMP1 (collagenase 1) and MMP2 (gelatinase A) can be determined as follows:
# Stock solutions of substrate (MCA-Pro-Leu-Gly-Leu-Dpa-Ala-Arg-NH2, Knight, C. G., Willenbrock, F., Murphy, G., A novel coumarin-labelled peptide for sensitive continuous assays of the matrix metalloproteinases, FEBS lett., 296, 263-266, (1992)), are prepared in 100% DMSO at a concentration 1.0 mM. Stock solutions of inhibitors are prepared in 100% DMSO. The inhibitor is diluted into the assays from a solution in 100% DMSO, and controls substitute an equal volume of DMSO so that the final DMSO concentration from inhibitor and substrate dilutions in all assays is 6.0%. Assays are performed in assay buffer (150 mM NaCl, 10 mM CaCl2, 50 mM Tris-Cl pH7.5, 0.05% Brij-35) containing 6.0% DMSO once the substrate and inhibitor are diluted into it. The substrate concentration used in the assays is 10 μM. The test is carried out at 37° C. The fluorescence changes are monitored using an excitation wavelength of 320 nm and an emission wavelength of […]. The reaction mixture is added in duplicate to appropriate wells of a 96 well microfluor plate. The reaction mixture is preincubated with the inhibitor for 30 min, the reaction is started by the addition of MMP enzyme and the fluorescence intensity is measured for 10 min. A time point that is on a linear part of the curve is chosen to determine the activity. The inhibition results are expressed as the inhibitor concentrations that produced 50% inhibition (IC50) of the activity in the control (non-inhibited) reaction. In this test, the compounds of the formula I and their pharmacologically acceptable salts have an inhibiting concentration IC50 [μmol/litre] of 0.0001 and 0.030, usually of 0.0002 to 0.010, for MMP2 and an inhibiting concentration IC50 [μmol/litre] of 0.0005 and 0.125, usually of 0.001 to 0.05, for MT1-MMP.
# Plasmid: The cDNA for human collagenase is generated by PCR of cDNA derived from RNA isolated from human U937 cells (ATCC# CRL-2367). The primers, used to generate this cDNA, are […] and AAGGCGGCCGCA […], corresponding to nucleotides 58 to 1526 of the reported cDNA sequence, GenBank accession number X05231. The resulting cDNA fragment is subcloned into Not I site of a mammalian expression vector pBPV-MMT (Matthias, P. et al., J. Mol. Biol. 1986, 187(4):557-68).
# C127 cells (ATCC-mouse mammary tumor cell line) are grown in Dulbecco's Modified Essential Medium supplemented with 10% heat inactivated fetal bovine serum and 1× antibiotic-antimycotic solution at 37° C. in a humidified CO2 incubator. Cells seeded at 8×10^5 in 100 mm dishes are transfected using a calcium phosphate precipitation method. 5 h prior to transfection, medium is replaced with fresh medium. Each dish is transfected with 15 μg of the expression vector. Cells are washed twice with PBS 16-18 h after transfection and are incubated in growth medium for an additional 48 h. Clones are then selected by incubation with the Neomycin related antibiotic G418 at a concentration of 400 μg/ml. Media from selected clones are analyzed for collagenase expression by an enzymatic assay. Expression and Purification: 16 liters of culture medium are concentrated to 1.6 liters and the enzyme is isolated by the procedures described by Wilhelm et al. (Proc. Natl. Acad. Sci. (USA). 1987; 84: 6725-29). The final product is further purified on a Superose G-75 (Pharmacia/LKB, Piscataway, N.J.) gel filtration column equilibrated in the assay buffer containing 0.15 M NaCl. Enzyme is pooled and stored in aliquots at −70° C. Recombinant procollagenase (43-45 kDa) is activated with 1 mM APMA (Aminophenylmercuric acetate, ICN Pharmaceuticals) for 2 h at 37° C., and the APMA is removed by extensive dialysis against the assay buffer containing 0.15M NaCl. The activated enzyme (˜36-kDa) is stored frozen at −70° C. until use.
row,Compound,IC50 [µM]
1,"2-[(Cyclopropylmethoxy-benzenesulfonyl)-(4-[1,2,4]triazol-1-yl-benzyl)-amino]-N-hydroxyacetamide-hydrochloride salt [Example 82b]",0.965
2,O=C(CN(Cc1ccc(-n2cncn2)cc1)S(=O)(=O)c1ccc(OCCC2CC2)cc1)NO [Example 82a],4.21
3,O=C(CN(Cc1ccc(-n2cncn2)cc1)S(=O)(=O)c1ccc(OCc2ccoc2)cc1)NO [Example 82c],5.1
4,"COc1ccc(CN(CC(=O)NO)S(=O)(=O)c2ccc(OCCCCl)cc2)cc1 [Example 68, 2-{[4-(3-chloro-propoxy)-benzenesulfonyl]-(4-methoxy-benzyl)amino}-N-hydroxy-acetamide]",0.622

# Further compounds by falling IC50, results first:
row,IC50 [µM],Compound
1,5.85,"C=CCCOc1ccc(S(=O)(=O)N(CC(=O)NO)Cc2ccc(-n3cncn3)cc2)cc1 [Example 79, 2-[(4-but-3-enyloxy-benzenesulfonyl)-(4-[1,2,4]triazol-1-yl-benzyl)-amino]-N-hydroxy-acetamide-hydrochloride salt]"
2,5.53,"C=CCCOc1ccc(S(=O)(=O)N(CC(=O)NO)Cc2ccc(N3CCCC3)cc2)cc1 [Example 84a, 2-[(4-But-3-enyloxy-benzenesulfonyl)-(4-(pyrrolidin-1-yl)-benzyl)-amino]-N-hydroxyacetamide-hydrochloride]"
3,4.29,"C=CCCOc1ccc(S(=O)(=O)N(CC(=O)NO)Cc2ccc(N3CCOCC3)cc2)cc1 [Example 81, 2-[(4-But-3-enyloxy-benzenesulfonyl)-(4-morpholin-4-yl-benzyl)-amino]-N-hydroxy-acetamide-hydrochloride]"
4,3.69,"C=CCCOc1ccc(S(=O)(=O)N(CC(=O)NO)Cc2cccc(F)n2)cc1 [Example 83a, 2-([4-But-3-enyloxy-benzenesulfonyl]-(6-fluoro-pyridine-2-yl)methyl-amino)-N-hydroxyacetamide]"
5,2.61,"C=CCCOc1ccc(S(=O)(=O)N(CC(=O)NO)Cc2ccc(-n3ccnc3)cc2)cc1 [Example 80, 2-[(4-But-3-enyloxy-benzenesulfonyl)-(4-imidazol-1-yl-benzyl)-amino]-N-hydroxy-acetamide-hydrochloride]"
6,0.069,"C#CCOc1ccc(S(=O)(=O)N(CC(=O)NO)Cc2ccc(OC)cc2)cc1 [Example 75, [(4-methoxy-benzyl)-[4-prop-2-ynyloxy-benzenesulfonyl]-amino]-N-hydroxy-acetamide]"
